Test results published in US7332474B2, “Peptides and related compounds having thrombopoietic activity” (Amgen Inc., priority 2001, dated 2008).

Legend:
c-mpl [1] = molecular target: T1, c-mpl (Homo sapiens, UniProt P40238); conditions: Cwirla et al., Science 276:1696-1699 (1997); cited from earlier work
T1 sequence (P40238 26-635): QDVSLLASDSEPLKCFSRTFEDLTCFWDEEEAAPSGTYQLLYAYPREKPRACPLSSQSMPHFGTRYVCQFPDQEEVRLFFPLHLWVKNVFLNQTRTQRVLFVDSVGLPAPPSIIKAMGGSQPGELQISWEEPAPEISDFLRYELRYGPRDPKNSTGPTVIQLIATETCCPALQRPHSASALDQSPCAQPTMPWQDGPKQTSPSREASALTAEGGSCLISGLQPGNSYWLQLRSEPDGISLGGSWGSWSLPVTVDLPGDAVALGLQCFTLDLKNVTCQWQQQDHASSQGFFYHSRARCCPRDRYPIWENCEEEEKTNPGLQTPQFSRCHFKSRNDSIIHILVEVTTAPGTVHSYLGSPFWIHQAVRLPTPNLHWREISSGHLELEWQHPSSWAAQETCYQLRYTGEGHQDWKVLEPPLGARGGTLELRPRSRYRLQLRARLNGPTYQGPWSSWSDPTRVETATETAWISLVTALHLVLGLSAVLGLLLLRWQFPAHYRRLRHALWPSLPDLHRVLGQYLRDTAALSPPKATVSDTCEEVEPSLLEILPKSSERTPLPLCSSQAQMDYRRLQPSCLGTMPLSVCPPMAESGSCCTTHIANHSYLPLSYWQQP

c-mpl [2] = molecular target: T1, c-mpl; conditions: Cwirla et al., Science 276:1696-1699 (1997); cited from earlier work; remark: listed apart in the source
[3] = molecular target: murine 32D cells transfected with a human mpl receptor (Homo sapiens, UniProt P40238)
From the text: The murine 32D cell proliferation assay involves the use of murine 32D cells that have been transfected with a human mpl receptor.

hu-mpl = hu-mpl (Homo sapiens, UniProt P40238); conditions: ratio of KD of TMP1 to KD of peptide

Sequence | EC50 (c-mpl [1]) [nM] | IC50 (c-mpl [2]) [nM] | Murine 32D Cell Proliferation Assay (relative to TMP1) [3] | Affinity relative to TMP1 (hu-mpl)
IEGPTLRQWLAARA [TPO mimetic peptide] | 400 | 2 | – | –
QGCSSGGPTLREWLQCRRMQHS [TMP22] | – | – | Not Detectable | >54
SAQGIEGPTLRQWLAARALETV [TMP1, reference compound] | – | – | 100% | –
QGALQEGPTLRQWLGWGQWGHS [TMP19] | – | – | 27% | 0.07
QGCSWGGPTLKQWLQCVRAKHS [TMP23] | – | – | Not Detectable | >54
